Assay results reported in ChEMBL document CHEMBL1921782, “Crystal structure-based virtual screening for fragment-like ligands of the human histamine H(1) receptor” (J Med Chem, 2011).

Legend:
Histamine H1 receptor = Histamine H1 receptor (Homo sapiens, UniProt P35367); assay: biochemical; type: cell-based, HEK293
Histamine H4 receptor = Histamine H4 receptor (Homo sapiens, UniProt Q9H3N8); assay: Displacement of [3H]histamine from human histamine H4 receptor expressed in HEK293 cells after 1 to 1.5 hrs by scintillation counting; type: cell-based
Histamine H3 receptor = Histamine H3 receptor (Homo sapiens, UniProt Q9Y5N1); assay: Displacement of [3H]N-alpha-methylhistamine from human histamine H3 receptor expressed in HEK293 cells after 1 to 1.5 hrs by scintillation counting; type: cell-based
Chain of Histamine H3 receptor (Q9Y5N1 whole entry): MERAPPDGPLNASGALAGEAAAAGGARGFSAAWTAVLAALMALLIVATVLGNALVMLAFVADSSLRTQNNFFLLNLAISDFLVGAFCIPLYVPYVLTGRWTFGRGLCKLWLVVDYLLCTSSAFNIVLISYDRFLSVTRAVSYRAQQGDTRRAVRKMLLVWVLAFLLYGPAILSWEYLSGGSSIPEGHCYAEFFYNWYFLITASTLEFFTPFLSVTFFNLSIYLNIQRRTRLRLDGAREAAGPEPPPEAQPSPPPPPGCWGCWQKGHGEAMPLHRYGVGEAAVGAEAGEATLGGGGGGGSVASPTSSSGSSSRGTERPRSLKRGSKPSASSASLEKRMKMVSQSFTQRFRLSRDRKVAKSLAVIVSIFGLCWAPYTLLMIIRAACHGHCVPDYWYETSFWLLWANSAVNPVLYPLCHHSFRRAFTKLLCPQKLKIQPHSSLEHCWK

Chain of Histamine H1 receptor (P35367 whole entry): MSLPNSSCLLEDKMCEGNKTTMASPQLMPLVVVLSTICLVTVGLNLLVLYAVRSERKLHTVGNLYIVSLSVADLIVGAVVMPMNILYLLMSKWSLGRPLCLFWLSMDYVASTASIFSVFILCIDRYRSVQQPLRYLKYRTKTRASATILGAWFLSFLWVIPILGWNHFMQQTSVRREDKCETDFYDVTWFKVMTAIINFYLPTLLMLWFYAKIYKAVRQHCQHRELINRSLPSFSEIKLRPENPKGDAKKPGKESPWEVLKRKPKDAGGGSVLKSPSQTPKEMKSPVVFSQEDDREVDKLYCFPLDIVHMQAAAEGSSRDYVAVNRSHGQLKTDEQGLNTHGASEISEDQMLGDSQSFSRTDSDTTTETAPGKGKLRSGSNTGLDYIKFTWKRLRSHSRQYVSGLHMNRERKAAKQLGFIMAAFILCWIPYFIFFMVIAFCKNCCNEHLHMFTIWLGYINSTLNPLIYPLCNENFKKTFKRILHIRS

| Ki (Histamine H1 receptor; read-out: pKi (converted)) [nM] | Compound | other results |
| --- | --- | --- |
| 1910 | C1CCN(c2nc(N3CCCC3)nc(N3CCNCC3)n2)C1 | – |
| 10700 | C=CCn1c(=N)n(CC(=O)c2ccccc2)c2ccccc21 | – |
| – | c1ccc(Cc2ccccc2OC2CCNCC2)cc1 | Ki (Histamine H1 receptor; read-out: Ki): 6 nM |
| – | CN1CCN(c2nc(N3CCCC3)c3cnn(C)c3n2)CC1 | Ki (Histamine H4 receptor): 2900 nM; Ki (Histamine H1 receptor; read-out: Ki): 62 nM |
| 427 | NC1=NC(c2ccccc2)n2c(nc3ccccc32)N1 (stereo not given) | – |
| 708 | CN(C)CCSc1nc2ccccc2c2nnnn12 | – |
| 708 | OCCN1CCN(c2ncnc3sccc23)CC1 | – |
| 2290 | CNCC(O)CN1c2ccccc2C2CCCCC21 (stereo not given) | – |
| 2630 | c1ccc2c(c1)nc1n(CCN3CCCCC3)cnn21 | Ki (Histamine H3 receptor): 600 nM |
| 3240 | c1ccc2c(N3CCN(C4CCCC4)CC3)ncnc2c1 | Ki (Histamine H3 receptor): 100 nM |
| 4170 | c1ccc2c(c1)n(CCN1CCCCC1)c1ncnn21 | – |
| 4570 | CC(C)NCc1ccc(-c2ccccc2)o1 | – |
| 6310 | OC(CNC1CC1)Cn1c2ccccc2c2ccccc21 (stereo not given) | Ki (Histamine H4 receptor): 2400 nM |
| 794 | CNCCCOc1cccc2ccccc12 | – |
| 1780 | c1cnc2c(c1)cc([C@@H]1CCCO1)n2CCN1CCCCC1 | – |

| Compound | Ki (Histamine H1 receptor; read-out: pKi (converted)) [nM] | other results |
| --- | --- | --- |
| NCCc1ccccc1Oc1ccccc1 | 11000 | – |
